Measured values taken from paper PMC11882969 (Nature Communications, 2025).
Where “and” joins values, the source holds several entries; their conditions need not be identical. Equal entries are not always repeated.

Molecular target: hCB2 (Homo sapiens, UniProt P34972)
Assay: bioSensAll ebBRET signaling profiling, hCB2
Type: cell-based
Design: host or cells: HEK293SL cells, transient PEI transfection
Details: for RE, relative efficacy: vs CP-55,940; for G13 hCB2 / G15 hCB2 / Gq hCB2 / Gs hCB2: raw signal
[1] = Log [Compound] (M) not printed (line after -13)

Chain of hCB2 (P34972 whole entry): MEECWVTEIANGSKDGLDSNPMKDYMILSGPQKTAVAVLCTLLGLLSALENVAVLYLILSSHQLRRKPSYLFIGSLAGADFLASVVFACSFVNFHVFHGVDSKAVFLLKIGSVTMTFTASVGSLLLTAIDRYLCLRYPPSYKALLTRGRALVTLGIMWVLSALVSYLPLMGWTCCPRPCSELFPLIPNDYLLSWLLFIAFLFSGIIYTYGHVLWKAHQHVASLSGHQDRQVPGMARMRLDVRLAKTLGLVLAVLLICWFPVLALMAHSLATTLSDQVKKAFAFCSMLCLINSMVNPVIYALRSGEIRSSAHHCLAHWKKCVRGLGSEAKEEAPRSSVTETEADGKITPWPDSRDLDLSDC

## COC(=O)C(C)(NC(=O)c1cc(C)n(-c2cccc(C(F)(F)F)c2)n1)c1cccs1 (stereo not drawn) [‘4042]
Log [Compound] (M) -4.22186
  Barr2+GRK2 hCB2: 36.6847 and 35.0372
  Gi1 hCB2: 75.671 and 56.3726
  Gi2 hCB2: 69.4439
  GoB hCB2: 52.0294 and 57.6529
  Gz hCB2: 65.903
  G13 hCB2: 669
  G15 hCB2: 923
  Gq hCB2: 1840
  Gs hCB2: 9076
Log [Compound] (M) -4.63927
  Barr2+GRK2 hCB2: 30.1112 and 31.9388
  Gi1 hCB2: 84.2769 and 74.9725
  Gi2 hCB2: 71.4813
  GoB hCB2: 57.2898 and 66.4321
  Gz hCB2: 53.7774
  G13 hCB2: 511
  G15 hCB2: 896
  Gq hCB2: 1838
  Gs hCB2: 9146
Log [Compound] (M) -5.05788
  Barr2+GRK2 hCB2: 34.1076 and 21.894
  Gi1 hCB2: 83.7031 and 72.7366
  Gi2 hCB2: 65.5506
  GoB hCB2: 61.864 and 59.6527
  Gz hCB2: 52.6347
Log [Compound] (M) -5.47381
  Barr2+GRK2 hCB2: 32.3148 and 21.944
  Gi1 hCB2: 87.9518 and 88.1124
  Gi2 hCB2: 70.9363
  GoB hCB2: 59.0585 and 62.0173
  Gz hCB2: 46.8061
Log [Compound] (M) -5.89285
  Barr2+GRK2 hCB2: 35.0413 and 26.4416
  Gi1 hCB2: 81.7804 and 90.251
  Gi2 hCB2: 70.7805
  GoB hCB2: 65.2185 and 62.9481
  Gz hCB2: 53.1772
Log [Compound] (M) -6.31878
  Barr2+GRK2 hCB2: 26.1148 and 22.8935
  Gi1 hCB2: 87.5021 and 87.0754
  Gi2 hCB2: 73.3371
  GoB hCB2: 60.7357 and 59.0239
  Gz hCB2: 50.6781
Log [Compound] (M) -6.72585
  Barr2+GRK2 hCB2: 32.0907 and 32.9383
  Gi1 hCB2: 83.1759 and 83.592
  Gi2 hCB2: 72.2081
  GoB hCB2: 57.8234 and 61.5268
  Gz hCB2: 54.4186
Log [Compound] (M) -7.14267
  Barr2+GRK2 hCB2: 30.5594 and 25.1923
  Gi1 hCB2: 86.1686 and 79.3795
  Gi2 hCB2: 59.0489
  GoB hCB2: 60.3698 and 62.0676
  Gz hCB2: 81.8754 and 46.0416
Log [Compound] (M) -7.55284
  Barr2+GRK2 hCB2: 24.7329 and 21.1444
  Gi1 hCB2: 76.7565 and 80.3516
  Gi2 hCB2: 59.4123
  GoB hCB2: 49.2391 and 57.2756
  Gz hCB2: 76.5196 and 38.421
Log [Compound] (M) -8
  Barr2+GRK2 hCB2: 20.8112 and 19.8451
  Gi1 hCB2: 58.7695 and 64.9921
  Gi2 hCB2: 62.9552
  GoB hCB2: 43.3382 and 49.9051
Log [Compound] (M) -8.22186
  Barr2+GRK2 hCB2: 15.2835 and 10.4
  Gi1 hCB2: 52.319 and 51.5606
  Gi2 hCB2: 51.7297
  GoB hCB2: 36.4463 and 41.3775
  Gz hCB2: 67.5634 and 41.7257
Log [Compound] (M) -8.39794
  Barr2+GRK2 hCB2: 10.0546 and 6.052
  Gi1 hCB2: 41.3253 and 50.1024
  Gi2 hCB2: 43.6058
  GoB hCB2: 31.1707 and 34.2586
Log [Compound] (M) -8.68787
  Barr2+GRK2 hCB2: 5.6847 and 8.001
  Gi1 hCB2: 42.5968 and 33.949
  Gi2 hCB2: 35.8583
Log [Compound] (M) -9.15521
  Gi2 hCB2: 25.8008
Log [Compound] (M) -9.61989
  Gi2 hCB2: -4.618
Log [Compound] (M) -10.0969
  Gi2 hCB2: -5.163
Log [Compound] (M) -10.5529
  Gi2 hCB2: -5.566
Log [Compound] (M) -11.0177
  Gi2 hCB2: -11.8727
Log [Compound] (M) -11.4949
  Gi2 hCB2: -13.975
Log [Compound] (M) -11.9208
  Gi2 hCB2: -11.7429
Log [Compound] (M) -12.3979
  Gi2 hCB2: -12.3529
Log [Compound] (M) -12.8861
  Gi2 hCB2: -13.7415
Log [Compound] (M) -13
  Gi2 hCB2: -11.7689
[1]
  Barr2+GRK2 hCB2: 1.105
  Gi1 hCB2: -2.635
  GoB hCB2: -0.7449
  Gz hCB2: 1.526
hCB2 Barr2 + GRK2
  pEC50 [95% CI]: 8.26 [8.1 – 8.5]
hCB2 Gi1
  pEC50 [95% CI]: 8.58 [8.5 – 8.7]
  RE, relative efficacy: 0.63
hCB2 Gi2
  pEC50 [95% CI]: 8.90 [8.8 – 9.0]
  RE, relative efficacy: 0.59
hCB2 GoB
  pEC50 [95% CI]: 8.60 [8.5 – 8.7]
  RE, relative efficacy: 0.47
hCB2 Gz
  pEC50 [95% CI]: 8.87 [8.5 – 9.3]
  RE, relative efficacy: 0.38
hCB2 ßarr2+GRK2
  RE, relative efficacy: 0.82
